# What was measured:
# [1] = target: Human Thrombin (Homo sapiens, UniProt P00734); assay: Inhibition of amidase activity of thrombin (Kass); type: biochemical; details: apparent association constant, mean over a range of concentrations
# Procedure: (§1) The assay is carried out by mixing 50 μL buffer (0.03M Tris, 0.15M NaCl, pH 7.4) with 25 μL of bovine thrombin or human thrombin solution (0.21 mg/mL of thrombostat bovine thrombin, Parke-Davis, or purified human thrombin, Enzyme Research Laboratories, South Bend, Ind., at about 8 NIH units/mL, in the same buffer) and 25 μL of test compound in a solvent (in 50% aqueous methanol, v:v). The 150 μL of an aqueous solution of the chromogenic substrate (at 0.25 mg/mL) are added and the rates of hydrolysis of the substrate are measured by monitoring the reactions at 405 nm for the release of p-nitroaniline. Standard curves are constructed by plotting free thrombin concentration against hydrolysis rate. The hydrolysis rates observed with test compounds are then converted to "free thrombin" values in the respective assays by use of the standard curves. The bound thrombin (bound to test compound) is calculated by subtracting the amount of free thrombin observed in each assay from the known initial amount of thrombin used in the assay. The amount of free inhibitor in each assay is calculated by subtracting the number of moles of bound thrombin from the number of moles of added inhibitor (test compound).
# The Kass value is the hypothetical equilibrium constant for the reaction between thrombin and the test compound (I). [drawing 54]
# (§2) Kass is calculated for a range of concentrations of test compounds and the mean value is reported in units of liter per mole.
# [2] = target: T1, t-PA (Homo sapiens, UniProt P00750); assay: Serine protease selectivity, chromogenic substrate (Kass), t-PA; type: biochemical; details: substrate H-D-Ile-Pro-Arg-p-nitroanilide
# T1 construct: purchased American Diagnostica, Greenwich, Conn
# T1 sequence (P00750 36-562): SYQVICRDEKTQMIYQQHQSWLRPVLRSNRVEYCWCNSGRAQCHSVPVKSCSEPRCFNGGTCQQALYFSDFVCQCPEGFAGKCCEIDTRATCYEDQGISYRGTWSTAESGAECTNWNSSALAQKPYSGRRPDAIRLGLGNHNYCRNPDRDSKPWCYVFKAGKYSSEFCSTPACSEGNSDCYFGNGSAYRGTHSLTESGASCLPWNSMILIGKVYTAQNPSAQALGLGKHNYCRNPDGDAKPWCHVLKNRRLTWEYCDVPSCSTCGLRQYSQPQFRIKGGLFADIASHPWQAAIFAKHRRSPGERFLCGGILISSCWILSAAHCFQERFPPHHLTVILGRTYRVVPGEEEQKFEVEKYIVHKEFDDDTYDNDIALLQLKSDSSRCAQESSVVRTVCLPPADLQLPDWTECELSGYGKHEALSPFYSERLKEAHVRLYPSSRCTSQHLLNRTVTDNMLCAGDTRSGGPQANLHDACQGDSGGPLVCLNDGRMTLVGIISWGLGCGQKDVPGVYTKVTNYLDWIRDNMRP
# Procedure: as §1, §2
# (§3) By substantially following the procedures described above for human thrombin, and using other human blood coagulation system serine proteases and proteases of the fibrinolytic system with the appropriate chromogenic substrates, identified below, selectivity of the compounds of the present invention with respect to the coagulation factor serine proteases and with respect to the fibrinolytic system serine proteases are evaluated as well as their substantial lack of interference with serine proteases of the fibrinolytic system. Thrombin inhibitors preferably should spare fibrinolysis induced by urokinase, tissue plasminogen activator (t-PA) and streptokinase. This would be important to the therapeutic use of such agents as an adjunct to streptokinase, t-PA or urokinase thrombolytic therapy and to the use of such agents as an endogenous fibrinolysis-sparing (with respect to t-PA and urokinase) antithrombotic agent. In addition to the lack of interference with the amidase activity of the fibrinolytic proteases, such fibrinolytic system sparing can be studied by the use of human plasma clots and their lysis by the respective fibrinolytic plasminogen activators.
# Human plasmin is purchased from Boehringer Mannheim, Indianapolis, Ind.; nt-PA is purchased as single chain activity reference from American Diagnostica, Greenwich, Conn.; modified-t-PA6 (mt-PA6) is prepared at Eli Lilly and Company by procedure known in the art (See, Burck, et al., J. Biol. Chem., 265, […] (1990). Plasmin chromogenic substrate H-D-Val-Leu-Lys-p-nitroanilide and tissue plasminogen activator (t-PA) substrate H-D-Ile-Pro-Arg-p-nitroanilide are purchased from Kabi Vitrum, Stockholm, Sweden.
# [3] = test system: Human plasma; assay: Human plasma anticoagulation, thrombin time (TT); type: biochemical; details: concentration required to double the thrombin time, linear extrapolation
# Procedure: (§4) Dog plasma and rat plasma is obtained from conscious mixed-breed hounds (either sex, Hazelton-LRE, Kalamazoo, Mich., U.S.A.) or from anesthetized male Sprague-Dawley rats (Harlan Sprague-Dawley, Inc., Indianapolis, Ind., U.S.A.) by venipuncture into 3.8 percent citrate. Fibrinogen is prepared from in-date ACD human blood as the fraction I-2 according to previous procedures and specifications. Smith, Biochem. J., 185, 1-11 (1980); and Smith, et al., Biochemistry, 11, 2958-2967 (1972). Human fibrinogen is also purchased as 98 percent pure/plasmin free from American Diagnostica, Greenwich, Conn. Coagulation reagents ACTIN, Thromboplastin, and Human plasma are from Baxter Healthcare Corp., Dade Division, Miami, Fla. Bovine thrombin from Parke-Davis ([…], Mich.) is used for coagulation assays in plasma.
# (§5) Coagulation assay procedures are as previously described. Smith, et al., Thrombosis Research, 50, 163-174 (1988). A CoAScreener coagulation instrument (American LABor, Inc.) is used for all coagulation assay measurements. The prothrombin time (PT) is measured by adding 0.05 mL saline and 0.05 mL Thromboplastin-C reagent to 0.05 mL test plasma. The activated partial thromboplastin time (APTT) is measured by incubation of 0.05 mL test plasma with 0.05 mL Actin reagent for 120 seconds followed by 0.05 mL CaCl2 (0.02M). The thrombin time (TT) is measured by adding 0.05 mL saline and 0.05 mL thrombin (10 NIH units/mL) to 0.05 mL test plasma. The compounds of formula I are added to human or animal plasma over a wide range of concentrations to determine prolongation effects on the APTT, PT, and TT assays. Linear extrapolations are performed to estimate the concentrations required to double the clotting time for each assay.
# [4] = test system: Human plasma; assay: Human plasma anticoagulation, prothrombin time (PT); type: biochemical; details: concentration required to double the PT, linear extrapolation
# Procedure: as §4, §5
# [5] = target: T2, Trypsin (Bos taurus, UniProt P00760); assay: Serine protease selectivity, chromogenic substrate (Kass), trypsin; type: biochemical, bovine; details: substrate N-Benzoyl-Phe-Val-Arg-p-nitroanilide
# T2 construct: Bovine trypsin is purchased; purchased Worthington Biochemicals, Freehold, N.J
# T2 sequence (P00760 24-246): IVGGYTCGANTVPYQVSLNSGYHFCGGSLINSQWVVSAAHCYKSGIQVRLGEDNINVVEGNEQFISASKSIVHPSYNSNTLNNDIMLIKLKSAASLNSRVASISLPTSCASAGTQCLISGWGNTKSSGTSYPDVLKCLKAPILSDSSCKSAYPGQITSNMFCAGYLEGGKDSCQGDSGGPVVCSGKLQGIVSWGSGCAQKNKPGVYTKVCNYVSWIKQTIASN
# Procedure: as §1, §2, §3
# Human factors X, Xa, IXa, XIa, and XIIa are purchased from Enzyme Research Laboratories, South Bend, Ind.; human urokinase from Leo Pharmaceuticals, Denmark; and recombinant activated Protein C (aPC) is prepared at Eli Lilly and Co. substantially according to U.S. Pat. No. 4,981,952. Chromogenic substrates: N-Benzoyl-Ile-Glu-Gly-Arg-p-nitroanilide (for factor Xa); N-Cbz-D-Arg-Gly-Arg-p-nitroanilide (for factor IXa assay as the factor Xa substrate); Pyroglutamyl-Pro-Arg-p-nitroanilide (for Factor XIa and for aPC); H-D-Pro-Phe-Arg-p-nitroanilide (for factor XIIa); and Pyroglutamyl-Gly-Arg-p-nitroanilide (for urokinase); are purchased from KabiVitrum, Stockholm, Sweden, or from Midwest Biotech, Fishers, Ind. Bovine trypsin is purchased from Worthington Biochemicals, Freehold, N.J., and human plasma kallikrein from Kabi Vitrum, Stockholm, Sweden. Chromogenic substrate H-D-Pro-Phe-Arg-p-nitroanilide for plasma kallikrein is purchased from Kabi Vitrum, Stockholm, Sweden. N-Benzoyl-Phe-Val-Arg-p-nitroanilide, the substrate for human thrombin and for trypsin, is synthesized according to procedures described above for the compounds of the present invention, using known methods of peptide coupling from commercially available reactants or purchased from Midwest Biotech, Fishers, Ind.
Compound,"Enzyme Kass, Human Thrombin [1]","Enzyme Kass, t-PA [2]","2x Clotting time, TT [3]","2x Clotting time, PT [4]","Enzyme Kass, Trypsin [5]","Enzyme Kass, Human Thrombin ([1]; HCl)","Enzyme Kass, t-PA ([2]; HCl)","2x Clotting time, TT ([3]; HCl)","2x Clotting time, PT ([4]; HCl)","Enzyme Kass, Trypsin ([5]; HCl)"
"C[C@H]1C[C@@H](C(=O)N[C@H](C=O)CCCNC(=N)N)N(C(=O)[C@H]2CCCCN2)C1.Cl.Cl (relative stereo) [Example 1, D-homoprolyl-L-cis-4-methyl-prolyl-L-argininal dihydrochloride]",220 L/mol × 10^6,0.077 L/mol × 10^6,60 ng/mL,"1,700 ng/mL",390 L/mol × 10^6,,,,,
"CC[C@H]1C[C@@H](C(=O)N[C@H](C=O)CCCNC(=N)N)N(C(=O)[C@H]2CCCCN2)C1.Cl.Cl (relative stereo) [Example 2, D-homoprolyl-L-cis-4-ethyl-prolyl-L-argininal dihydrochloride]",230 L/mol × 10^6,0.097 L/mol × 10^6,51 ng/mL,"1,500 ng/mL",520 L/mol × 10^6,,,,,
"CCC[C@H]1C[C@@H](C(=O)N[C@H](C=O)CCCNC(=N)N)N(C(=O)[C@H]2CCCCN2)C1.Cl.Cl (relative stereo) [Example 3, D-hPro-Pro(4-cis-n-propyl)-ArgH.2 HCl]",27 L/mol × 10^6,0.14 L/mol × 10^6,120 ng/mL,"2,900 ng/mL",260 L/mol × 10^6,,,,,
"Cl.Cl.N=C(N)NCCC[C@@H](C=O)NC(=O)[C@@H]1C[C@H](Cc2ccccc2)CN1C(=O)[C@H]1CCCCN1 (relative stereo) [Example 5, D-hPro-Pro(4-cis-benzyl)-ArgH.2 HCl]",110 L/mol × 10^6,0.057 L/mol × 10^6,80 ng/mL,"1,600 ng/mL",150 L/mol × 10^6,,,,,
"Cl.Cl.N=C(N)NCCC[C@@H](C=O)NC(=O)[C@@H]1CC2CCCCC2N1C(=O)[C@H]1CCCCN1 (relative stereo) [Example 7, N-[(1-D-homoprolyl-cis-octahydro-1H-indol-2(S)-yl)carbonyl]-L-argininal dihydrochloride]",340 L/mol × 10^6,0.053 L/mol × 10^6,37 ng/mL,"1,500 ng/mL",150 L/mol × 10^6,,,,,
"Cl.Cl.N=C(N)NCCC[C@H](C=O)NC(=O)[C@@H]1C[C@H](Oc2ccccc2)CN1C(=O)[C@H]1CCCCN1 (relative stereo) [Example 8, D-homoprolyl-L-cis-4-phenoxy-L-prolyl-D-argininal dihydrochloride]",50 L/mol × 10^6,0.069 L/mol × 10^6,70 ng/mL,"1,900 ng/mL",270 L/mol × 10^6,,,,,
"Cl.Cl.Cl.N=C(N)NCCC[C@@H](C=O)NC(=O)[C@@H]1C[C@H](Oc2cccnc2)CN1C(=O)[C@H]1CCCCN1 (relative stereo) [Example 9, D-hPro-Pro(4-cis-(3-pyridyloxy))-ArgH.3 HCl]",37 L/mol × 10^6,0.055 L/mol × 10^6,50 ng/mL,"3,100 ng/mL",130 L/mol × 10^6,,,,,
"Cl.Cl.Cl.N=C(N)NCCC[C@@H](C=O)NC(=O)[C@@H]1C[C@H](Oc2ccc(N)cc2)CN1C(=O)[C@H]1CCCCN1 (relative stereo) [Example 11, D-hPro-Pro(4-cis-(4-NH2-phenoxy))-ArgH.3 HCl]",28 L/mol × 10^6,0.086 L/mol × 10^6,96 ng/mL,"5,900 ng/mL",74 L/mol × 10^6,,,,,
"Cl.Cl.N=C(N)NCCC[C@@H](C=O)NC(=O)[C@@H]1C[C@H](Oc2ccccc2)CN1C(=O)C1NCCC2CCCCC21 (relative stereo) [Example 15, D-1-Piq-Pro(4-cis-phenoxy)-ArgH.2 HCl]",230 L/mol × 10^6,0.045 L/mol × 10^6,28 ng/mL,"1,600 ng/mL",140 L/mol × 10^6,,,,,
"CCS(=O)(=O)N[C@@H](C(=O)N1[C@H](C(=O)N[C@H](C=O)CCCNC(=N)N)C[C@@H]2CCCC[C@@H]21)c1ccccc1.Cl (relative stereo) [Example 22, EtSO2 -D-Phg-cis-Ohi-ArgH.HCl]","6,170 L/mol × 10^6",0.085 L/mol × 10^6,9 ng/mL,"1,208 ng/mL",312 L/mol × 10^6,,,,,
"Cl.Cl.N=C(N)NCCCC(C=O)NC(=O)C1CC2CCCCC2N1C(=O)C1NCCC2CCCCC21 [Example 20, D-1-cis-Piq-cis-Ohi-ArgH.2 HCl]",,,,,,"1,630 L/mol × 10^6",0.013 L/mol × 10^6,19 ng/mL,"1,452 ng/mL",119 L/mol × 10^6

# — US5599793A, “Antithromobotic agents” (Eli Lilly and Company, priority 1995, dated 1997)
